Marks after values point to notes of the source that are not given here.
How the values were obtained:
[1] = tested on: Human fibroblasts of the dermal follicular papilla; assay: Viability measured using WST-8 reagent; assay type: cell-based; conditions: 2 μM
5-α-reductase enzyme = assay: Production of dihydrotestosterone (DHT) from testosterone in a cellular model, revealing 5-α-reductase activity; assay type: cell-based, human; conditions: 2 μM
Protocol: This model is a cellular model, that is more robust than models on purified enzyme.
Human fibroblasts of the dermal follicular papilla (person) were seeded into collagen-coated culture plates in the presence of a specific growth medium. After three days, they were pretreated for 24 hours with the positive reference [Finasteride (F) at 2 μM and 1 μM] and each of the algal extracts to be tested (Table 2). The fibroblasts were then stimulated with testosterone at 0.5 μM before undergoing a post-treatment for 24 hours. Each test was carried out in sextuplicate.
The viability was measured using a WST-8 reagent and the conversion of the testosterone was then evaluated by measuring the intracellular concentration of (DHT). The viability was expressed relative to that of the control without testosterone (control T0). The amount of (DHT) was standardized relative to the viability results and then related to the control condition with testosterone (0.5 μM) control (T1) in order to calculate a percentage effect, and also related to the control conditions without testosterone in order to calculate a percentage protection.

CC(C)(C)NC(=O)[C@H]1CC[C@H]2[C@@H]3CC[C@H]4NC(=O)C=C[C@]4(C)[C@H]3CC[C@]12C [F, Finasteride] was tested, and the “WST-8 OD (AU)” value ([1]; fibroblasts stimulated with testosterone 0.5 μM, 24 h pre- and 24 h post-treatment) was 2.19 +/− 0.27^(a) AU, the “WST-8 Viability” value ([1]; relative to control without testosterone (T0)) was 93%^(a) and the “DHT Standardized concentration (pg/ml/AU)” value (5-α-reductase enzyme; DHT standardized relative to viability (WST-8 OD)) was 5.68 +/− 0.91^(a) pg/ml/AU. The “DHT Concentration (pg/ml)” value (5-α-reductase enzyme; intracellular DHT, testosterone 0.5 μM) was 12.38 +/− 2.35^(a) pg/ml, the “DHT Restoration” value (5-α-reductase enzyme; related to control without testosterone (T0 = 100%, T1 = 0%)) was 46%* and the “DHT Effect” value (5-α-reductase enzyme; relative to control with testosterone 0.5 μM (T1)) was −28%*.
